Measured values: patent US20240398732A1, “Treating Cancers with Combinations of Spironolactone and Acylfulvenes” (LANTERN PHARMA INC., priority 2021, published 2024)
“Also recorded” adds a separate entry of the source. Like-named read-outs stand apart in the source and are kept apart here.

Legend:
[1] = tested on: U87 (glioblastoma cell line); experiment: U87 cell growth / survival / viability in vitro; type: cell-based; details: for IC50: Homo sapiens, U-87 MG
[2] = tested on: M1123 (glioblastoma cell line); experiment: M1123 cell viability in vitro; type: cell-based
[3] = tested on: Mayo39 (Glioblastoma cell line); experiment: Mayo39 cell viability in vitro; type: cell-based
[4] = tested on: U87, M1123 and Mayo39 glioblastoma cultures; experiment: GBM cell viability, pooled statement on IC50 shift; type: cell-based; details: with 5 μM Spironolactone
[5] = tested on: subcutaneous U87 xenograft tumors; details: beginning on ~day 25
Experimental: (§1) SCID mice bearing pre-established subcutaneous U87 xenograft tumors were treated with Spironolactone alone, LP-184 alone or their combination. Spironolactone treatment began on post implantation day 8 at 25 mg/kg intraperitoneally 5 days per week, and LP-184 on day 9 at 4 mg/kg intravenously every other day for 4 doses.

[6] = tested on: subcutaneous U87 xenograft tumors; experiment: Subcutaneous U87 xenograft in SCID mice; details: Spironolactone 25 mg/kg i.p. 5 days per week from day 8; LP-184 4 mg/kg i.v. every other day for 4 doses from day 9
Experimental: as §1

[7] = tested on: CHLA-06 (atypical teratoid rhabdoid tumor cell line); experiment: CHLA-06 cell growth / survival in vitro; type: cell-based; details: spironolactone alone (10 μM)
[8] = tested on: CAKI-2 (papillary renal cell carcinoma cell line); experiment: CAKI-2 cell growth / survival in vitro; type: cell-based; details: spironolactone alone
[9] = tested on: RPMI 8226 human myeloma cell lines; experiment: RPMI 8226 cell growth / cytotoxicity in vitro; type: cell-based
ERCC3 = target: T1, ERCC3 (Homo sapiens, UniProt P19447); experiment: ERCC3 western blot in glioblastoma cell lines; type: cell-based; details: 10 μM spironolactone, over 24-72 hours
T1 construct: endogenous in cells; host or cells: M1123, Mayo39, U87 glioblastoma cell lines
T1 sequence (P19447 1-782): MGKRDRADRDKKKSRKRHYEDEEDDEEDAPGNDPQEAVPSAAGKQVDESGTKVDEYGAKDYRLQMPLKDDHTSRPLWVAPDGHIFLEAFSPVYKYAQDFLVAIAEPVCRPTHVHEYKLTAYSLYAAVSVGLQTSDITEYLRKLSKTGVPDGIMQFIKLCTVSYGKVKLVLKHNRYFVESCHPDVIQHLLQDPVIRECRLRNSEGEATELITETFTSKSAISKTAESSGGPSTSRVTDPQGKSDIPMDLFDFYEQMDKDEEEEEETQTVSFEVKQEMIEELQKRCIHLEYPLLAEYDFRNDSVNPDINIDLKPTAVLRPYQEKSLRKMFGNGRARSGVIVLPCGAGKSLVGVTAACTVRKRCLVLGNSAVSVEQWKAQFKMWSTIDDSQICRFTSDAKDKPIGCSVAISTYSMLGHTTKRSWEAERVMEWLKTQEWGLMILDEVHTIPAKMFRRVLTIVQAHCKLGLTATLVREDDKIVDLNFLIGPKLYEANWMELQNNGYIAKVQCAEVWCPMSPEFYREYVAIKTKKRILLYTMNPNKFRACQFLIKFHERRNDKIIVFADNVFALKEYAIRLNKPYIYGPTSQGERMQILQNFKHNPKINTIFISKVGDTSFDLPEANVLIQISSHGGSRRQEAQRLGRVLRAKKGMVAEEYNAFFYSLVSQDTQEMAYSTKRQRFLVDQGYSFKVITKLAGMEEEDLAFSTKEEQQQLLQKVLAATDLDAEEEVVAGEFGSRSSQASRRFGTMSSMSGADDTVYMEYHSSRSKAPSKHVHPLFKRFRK
Experimental: Representative images show quantification of ERCC3 western blot intensity with significant Spironolactone-mediated ERCC3 downregulation over 24-72 hours in different glioblastoma cell lines.

[10] = tested on: 22RV1 (prostate cell line); experiment: 22RV1 cell growth / survival in vitro; type: cell-based; details: 10 μM spironolactone alone
[11] = tested on: ACHN (renal cell carcinoma cell line); experiment: ACHN cell growth / survival in vitro; type: cell-based; details: 10 μM spironolactone alone
[12] = LP-184 alone, read-out: LP-184 alone IC50 [mean value
[13] = with 5 uM Spironolactone, read-out: LP-184 IC50 [mean value, nM] in combination with 5 uM Spironolactone

IC50 [2, 12] [nM] | IC50 [2, 13] [nM] | IC50 [3, 12] [nM] | IC50 [3, 13] [nM] | decrease in LP-184 IC50s [4] | ERCC3 protein level (western blot) (ERCC3; M1123) | ERCC3 protein level (western blot) (ERCC3; Mayo39) | ERCC3 protein level (western blot) (ERCC3; U87) | Structure (SMILES) | IC50 [1, 12] [nM] | IC50 [1, 13] [nM] | tumor regrowth (animals) [5] | tumor growth / tumor regression [6] | growth rates ([1]; spironolactone alone) | growth rates [7] | growth rates [8] | cytotoxicity ([9]; 10 μM spironolactone treatment alone) | cell growth rates [10] | cell growth rates [11] | reduction of LP-284 IC50 ([9]; by 10 μM spironolactone) [fold]
151 | 39.7 | 313 | 94.3 | 3-6 fold | – | – | – | CC1=C(CN(O)C(N)=O)C2=C(C)C3(CC3)[C@@](C)(O)C(=O)C2=C1 [LP-184, (−)-hydroxyureamethyl acylfulvene] | 250 | 37.6 | 5/5 | complete or near complete tumor regression | – | – | – | – | – | – | –
– | – | – | – | – | time-dependent depletion | time-dependent depletion | time-dependent depletion | CC(=O)SC1CC2=CC(=O)CCC2(C)C2CCC3(C)C(CCC34CCC(=O)O4)C12 (stereo not drawn) [Spironolactone, 7α-Acetylthiospirolactone] | – | – | – | no effect on tumor growth | did not substantially change the growth rates | did not substantially change the growth rates; also recorded: did not change the cell growth rates | did not substantially change the growth rates | did not cause cytotoxicity | did not change the cell growth rates | did not change the cell growth rates | –
– | – | – | – | – | – | – | – | CC1=C(CN(O)C(N)=O)C2=C(C)C3(CC3)[C@](C)(O)C(=O)C2=C1 [LP-284, (+)-hydroxyureamethyl acylfulvene] | – | – | – | – | – | – | – | – | – | – | 2.4
